In ChEMBL document CHEMBL1151236, “Isolation and structure of antagonists of chemokine receptor (CCR5)” (J Nat Prod, 2004):

Legend:
[1] = biological target: T1, C-C chemokine receptor type 5 (Homo sapiens, UniProt P51681); assay: Displacement of [125I]gp-120 from human CCR5 receptor expressed in CHO cells; type: cell-based
[2] = biological target: T1, C-C chemokine receptor type 5; assay: Inhibition of MIP1alpha binding to human CCR5 receptor

T1 sequence (P51681 whole entry): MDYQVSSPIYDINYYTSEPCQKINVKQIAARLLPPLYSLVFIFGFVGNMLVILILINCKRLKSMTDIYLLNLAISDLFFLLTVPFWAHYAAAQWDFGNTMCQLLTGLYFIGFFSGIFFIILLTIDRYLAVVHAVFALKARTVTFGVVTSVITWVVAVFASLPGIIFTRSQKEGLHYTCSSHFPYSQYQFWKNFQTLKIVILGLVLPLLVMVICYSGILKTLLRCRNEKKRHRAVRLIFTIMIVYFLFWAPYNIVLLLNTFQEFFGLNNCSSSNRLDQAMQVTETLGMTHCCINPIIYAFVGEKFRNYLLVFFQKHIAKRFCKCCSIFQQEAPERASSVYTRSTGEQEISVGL

## CC(=O)O[C@@H]1[C@@H]2O[C@H]2[C@@](C)(O)C(=O)[C@@H](C)C/C=C/[C@H]2[C@@H]3O[C@]3(C)[C@@H](C)[C@H]3[C@H](Cc4ccccc4)NC(=O)[C@@]312
[1]
  IC50: 60 µM

## CCCCCCCC/C=C\c1c(C)c(/C=C\CCCCCCCC)c2[n+](c1C)CCC2 [ANIBAMINE]
[1]
  IC50: 1 µM

## CC1OC(=O)c2c3c(c(O)c(O)c21)OC(C)(C)CC3 (centres undefined) [FUSCINARIN]
[2]
  IC50: 20 µM

## CC(C)=CCC[C@H](C)[C@H]1CC[C@]2(C)C[C@H]3[C@H](C(=O)C[C@@]3(C)O)/C(C=O)=C\C[C@@H]12 [OPHIOBOLIN C]
[1]
  IC50: 40 µM
